The values that follow come from US8546338B2, “Self-assembling hydrogels based on dicephalic peptide amphiphiles” (Johnson & Johnson Consumer Companies, Inc., priority 2010, dated 2013).

Data set [1] has as its system human internal mammary artery derived cells (IMACs). Briefly: Cell viability of encapsulated IMACs in DPA gels (Live/Dead). In kind it is cell-based. Particulars: 2% DPA gel. As for the experimental part: The viability and proliferation of cells in the gels was evaluated by encapsulating human internal mammary artery derived cells (IMACs) in the gels. IMACs were isolated as described in copending U.S. patent application Ser. No. 12/885,855. Cells were thawed from storage and cultured for four days in advanced DMEM/F12 media. After four days, the cells were trypsinized and counted by the Guava ViaCount (Millipore, Billerica, Mass.) methodology. Cells were re-suspended in advanced DMEM/F12 media at a density of 1,000,000 cells/ml. Encapsulation of the cells in the gels was achieved by adding 100 μl cell suspension to 100 μl of a 4 wt % DPA solution in ultrapure in a 24 well plate, resulting in a final DPA concentration of 2%. The gels were incubated for 1 h at 37° C., 5% CO2 after which 1000 μl media was added on top of the gel. Cells were incubated at 37° C., 5% CO2. Every 3-4 days of culture, 500 μl media was replaced. The cells were cultured for 3 weeks and cells were assessed after 1, 2 and 3 weeks with Live/Dead. […] The IMAC cells appear to have high motility in these gels as evidenced by the channels that they create in the gels.

The subject of data set [2] is Sprague-Dawley rats. Briefly: Biocompatibility study, gel injected into intra-gluteal muscle pocket. Type of data set: in vivo. The following applies: rat, in vivo. As for the experimental part:
A biocompatibility study was performed on Gly-Val-Ala-Val-Ala-Val-Ala-Glu-Gly-Glu (SEQ ID NO: 4), Gly-Phe-Gly-Phe-Gly-Phe-Gly-Glu-Gly-Glu (SEQ ID NO: 5) and Gly-Phe-Gly-Phe-Gly-Phe-Gly-Gln-Gln-Ser (SEQ ID NO: 8) DPAs. Lyophilized DPA powders were e-beam sterilized in 1.5 cc polypropylene cryovials at 15 KGy. Gels were pre-formed in 1 cc syringes by mixing a 4 wt % DPA solution in water for injection in a 1:1 ratio with DMEM followed by immediate aspiration into the syringe. In the case of the formulations with the Glu-Gly-Glu (SEQ ID NO: 27) sequence in the solubility enhancing region, 10 μl of a sterile 100 mg/cc calcium chloride solution was mixed in before aspiration into the syringe. An intra-gluteal muscle pocket was created in Sprague-Dawley rats after which 100 μl of gel was injected using a catheter fitted to the syringe. Subsequently, the pocket was closed with polyglactin 910 sutures sold under the tradename VICRYL (Ethicon, Somerville, N.J.). Tissue was harvested at 3, 7 and 28 days after implantation.

Data set [3] has as its system human umbilical cord cells (hUTCs). Put plainly: Cell viability of encapsulated hUTCs in DPA gels (Live/Dead). In kind it is cell-based. The following applies: 2 wt % gel, 100,000 cells, after 1, 2 and 3 weeks. The protocol:
The viability and proliferation of cells in the gels was evaluated by encapsulating human umbilical cord cells (hUTCs) in the gels. hUTCs were isolated as described in U.S. Pat. No. 7,510,873. Cells were thawed from storage and cultured for four days in Hayflick media. After four days, the cells were trypsinized and counted by the Guava ViaCount methodology (Millipore, Billerica, Mass.). Cells were re-suspended in Hayflick media at a density of 1,000,000 cells/ml. Encapsulation of the cells in the gels was achieved by adding 100 μl cell suspension to 100 μl of a 4 wt % DPA solution in ultrapure in a 24 well plate, resulting in a final DPA concentration of 2%. The gels were incubated for 1 h at 37° C., 5% CO2 after which 1000 μl media was added on top of the gel. Cells were incubated at 37° C., 5% CO2. Every 3-4 days of culture, 500 μl media was replaced.
After mixing of the cell suspension and 4% DPA solution by pipetting up and down, the protocol described above was modified by adding 10 μl 100 mg/ml calcium chloride solution upon which gelation occurred. Final concentrations are 2% in DPA and 100,000 cells. Control gels without cells were prepared by using pure media and additional cell only and cells with calcium chloride controls were prepared as standard 2D culture. After 7 days of culture, the gels were assayed with Live/Dead assay for cell viability and Invitrogen CyQuant GR assay for cell proliferation (Invitrogen, Carlsbad, Calif.). The Live/Dead was performed as described in the provided protocol but at half the […] concentration to reduce non-specific fluorescence due to dye absorption. […] The cells in the gels contained a lot of viable cells (FIG. 410). No dead cells could be observed in the gels. Therefore, the viability of these cells in the gels is very high (>95%).
In a second experiment, 100,000 hUTC cells were encapsulated in 2 wt % Gly-Phe-Gly-Phe-Gly-Phe-Gly-Gln-Gln-Ser (SEQ ID NO: 8) DPA gels. The cells were cultured for 3 weeks and cells were assessed after 1, 2 and 3 weeks with Live/Dead.

The nature of data set [4]: Oscillating rheology, strain sweep. In kind it is physicochemical. The following applies: 2 wt % gels in DMEM, formed for 30 minutes. The protocol:
(§1) Oscillating rheology by the parallel plates method (radius=25 mm) was performed on 400 μl gels to assess the mechanical strengths of gels. Time sweeps were performed to evaluate kinetics of formation at a constant strain rate of 1% and frequency of 1 rad/s. Strain sweeps were performed ranging from 1-100% strain in increments of 2% at a constant frequency of 1 rad/s. Cross-over of G′ and G″ was used to determine the gel point and point of breakdown. Time sweeps were initiated immediately after mixing the solutions that lead to DPA hydrogel formation. In the strain sweeps, the gels were allowed to form on the plate for 30 minutes before the measurement is initiated.
Strains sweeps were performed on 2 wt % Gly-Phe-Gly-Phe-Gly-Phe-Gly-Gln-Gln-Ser (SEQ ID NO: 8), Gly-Phe-Gly-Phe-Gly-Phe-Gly-Gln-Gly-Ser (SEQ ID NO: 12) and Gly-Phe-Gly-Phe-Gly-Phe-Gly-Asn-Asn-Ser (SEQ ID NO: 11) gels in DMEM (FIG. 8). Gels were allowed to form for 30 minutes before the experiment was initiated.

Data set [5] is described as follows: Oscillating rheology, time sweep (kinetics of formation). The following applies: 2 wt % gels in DMEM. Type of data set: physicochemical. As for the experimental part: as §1
The gelation process was initiated on the plate at 25° C. by the addition of 10 μl of 100 mg/ml calcium chloride solution to a solution of the DPA in DMEM.

Structures are written as SMILES.

In the case of `CCCCCCCCCCCCCCCC(=O)NC(C(=O)NCC(=O)N[C@@H](Cc1ccccc1)C(=O)NCC(=O)N[C@@H](Cc1ccccc1)C(=O)NCC(=O)N[C@@H](Cc1ccccc1)C(=O)NCC(=O)N[C@@H](CCC(N)=O)C(=O)N[C@@H](CCC(N)=O)C(=O)N[C@@H](CO)C(=O)O)C(=O)NCC(=O)N[C@@H](Cc1ccccc1)C(=O)NCC(=O)N[C@@H](Cc1ccccc1)C(=O)NCC(=O)N[C@@H](Cc1ccccc1)C(=O)NCC(=O)N[C@@H](CCC(N)=O)C(=O)N[C@@H](CCC(N)=O)C(=O)N[C@@H](CO)C(=O)O` [Gly-Phe-Gly-Phe-Gly-Phe-Gly-Gln-Gln-Ser], the “Viability of IMAC cells, Live/Dead” value in data set [1] (after 1, 2 and 3 weeks) is recorded as “very limited numbers of dead cells were detected”. Further, the “Motility of IMAC cells in the gel” value in data set [1] (three weeks, channels created in the gels) is recorded as “high motility”. The Gross observations result in data set [2] is reported as “some fluid buildup at day 3”. In addition, the “Viability of hUTC cells, Live/Dead” value in data set [3] is given as “very limited numbers of dead cells were detected”. The “Strain at which gel re-crosses the transition point (breakdown)” value is 99 % strain in data set [4] and roughly 100 % strain in data set [4] (listed as Gln-Gln-Ser (SEQ ID NO: 28)). Further, the “Gel point after mixing” value in data set [5] was found to be 74 s.
